Laboratory results from the NIST ThermoML archive (doi:10.1021/je901020a).

What was measured:
[1] = refractive index (Na D-line) (dimensionless); xn = mol fraction of the nth substance listed; settings: 101 kPa, Liquid, Standard Abbe refractometry
[2] = xn = mol fraction of the nth substance listed; settings: 101 kPa, Liquid; for speed of sound: Pulse-echo method

C1CCCCCCC1 [cyclooctane] + Cc1ccccc1C
Settings	mass density, [2] [kg/m3]	refractive index, [1]	speed of sound, [2] [m/s]
298.15 K, x1 = 0.0513	871.8	1.49887	1347
298.15 K, x1 = 0.1015	868.4	1.49595	1348
298.15 K, x1 = 0.2	862.5	1.49039	1349
298.15 K, x1 = 0.3067	856.9	1.48468	1351
298.15 K, x1 = 0.4026	852.2	1.47987	1354
298.15 K, x1 = 0.5037	847.6	1.47508	1358
298.15 K, x1 = 0.6262	842.6	1.46963	1364
298.15 K, x1 = 0.7007	839.9	1.46653	1368
298.15 K, x1 = 0.8028	836.5	1.4626	1375
298.15 K, x1 = 0.8953	833.9	1.45933	1381
298.15 K, x1 = 0.9498	832.5	1.45752	1386
298.15 K, x1 = 1	831.5	1.45598	1391
313.15 K, x1 = 0.0508	859.7	1.49181	1289
313.15 K, x1 = 0.0905	857.3	1.48933	1289
313.15 K, x1 = 0.1697	852.7	1.48503	1289
313.15 K, x1 = 0.2967	845.9	1.47816	1291
313.15 K, x1 = 0.3824	841.6	1.47392	1293
313.15 K, x1 = 0.4839	836.9	1.46911	1296
313.15 K, x1 = 0.5878	832.4	1.46435	1300
313.15 K, x1 = 0.6869	828.6	1.46018	1305
313.15 K, x1 = 0.7892	825.1	1.45617	1310
313.15 K, x1 = 0.8891	822	1.45244	1317
313.15 K, x1 = 0.9368	820.7	1.45072	1321
313.15 K, x1 = 1	819.2	1.44877	1326

Cc1cccc(C)c1 [1,3-dimethylbenzene] + CC1CCCCC1
Settings	mass density, [2] [kg/m3]	refractive index, [1]	speed of sound, [2] [m/s]
298.15 K, x2 = 0	859.8	1.49466	1321
298.15 K, x2 = 0.0514	854.4	1.49046	1313
298.15 K, x2 = 0.0975	849.6	1.4867	1307
298.15 K, x2 = 0.159	843.2	1.48174	1298
298.15 K, x2 = 0.2977	829.1	1.47072	1281
298.15 K, x2 = 0.399	819.1	1.46292	1269
298.15 K, x2 = 0.4954	809.7	1.45565	1258
298.15 K, x2 = 0.5965	800.2	1.44827	1248
298.15 K, x2 = 0.6974	791	1.44107	1238
298.15 K, x2 = 0.7948	782.3	1.4343	1230
298.15 K, x2 = 0.8933	773.8	1.42759	1222
298.15 K, x2 = 0.9495	769.1	1.42388	1218
313.15 K, x2 = 0	846.9	1.48653	1259
313.15 K, x2 = 0.0457	842.1	1.4829	1252
313.15 K, x2 = 0.0933	837.1	1.47908	1246
313.15 K, x2 = 0.1938	826.7	1.47103	1232
313.15 K, x2 = 0.2886	817	1.46361	1219
313.15 K, x2 = 0.3966	806.3	1.45534	1206
313.15 K, x2 = 0.5077	795.5	1.44702	1194
313.15 K, x2 = 0.595	787.3	1.44063	1184
313.15 K, x2 = 0.6933	778.3	1.43362	1175
313.15 K, x2 = 0.7987	768.8	1.42615	1165
313.15 K, x2 = 0.8973	760.3	1.41945	1157
313.15 K, x2 = 0.9504	756.1	1.41609	1153

Cc1ccccc1C [1,2-dimethylbenzene] + C1CCCCC1
Settings	mass density, [2] [kg/m3]	refractive index, [1]	speed of sound, [2] [m/s]
298.15 K, x2 = 0	875.4	1.50262	1350
298.15 K, x2 = 0.0471	870.8	1.49895	1343
298.15 K, x2 = 0.0981	865.5	1.49488	1336
298.15 K, x2 = 0.1961	855.2	1.48705	1323
298.15 K, x2 = 0.2986	844.5	1.47886	1310
298.15 K, x2 = 0.3979	834	1.47092	1298
298.15 K, x2 = 0.4964	823.8	1.46293	1288
298.15 K, x2 = 0.5975	813.5	1.45493	1278
298.15 K, x2 = 0.6978	803.2	1.44691	1269
298.15 K, x2 = 0.796	793.4	1.43924	1263
298.15 K, x2 = 0.8995	783.4	1.43126	1257
298.15 K, x2 = 0.9512	778.6	1.42739	1255
313.15 K, x2 = 0	862.9	1.49466	1289
313.15 K, x2 = 0.0528	857.4	1.49053	1282
313.15 K, x2 = 0.0977	852.7	1.48716	1275
313.15 K, x2 = 0.1958	842.3	1.47934	1261
313.15 K, x2 = 0.2169	840	1.47754	1258
313.15 K, x2 = 0.4011	820.4	1.46285	1234
313.15 K, x2 = 0.4999	809.9	1.45473	1222
313.15 K, x2 = 0.5976	799.6	1.44694	1211
313.15 K, x2 = 0.6971	789.4	1.43921	1201
313.15 K, x2 = 0.7994	779	1.43094	1193
313.15 K, x2 = 0.8995	769.1	1.42311	1186
313.15 K, x2 = 0.9484	764.5	1.41926	1183

Cc1ccc(C)cc1 [1,4-dimethylbenzene] + C1CCCCCCC1
x2 = 0
Settings	mass density, [2] [kg/m3]	refractive index, [1]	speed of sound, [2] [m/s]
298.15 K	856.6	1.49312	1310
313.15 K	843.5	1.48444	1248

C1CCCC1 [cyclopentane] + Cc1cc(C)cc(C)c1
Settings	mass density, [2] [kg/m3]	refractive index, [1]	speed of sound, [2] [m/s]
298.15 K, x1 = 0.0383	857.8	1.49446	1332
298.15 K, x1 = 0.0884	853.3	1.49105	1325
298.15 K, x1 = 0.1869	843.9	1.48398	1311
298.15 K, x1 = 0.2531	837.5	1.47925	1302
298.15 K, x1 = 0.3849	823.5	1.46883	1283
298.15 K, x1 = 0.4879	811.9	1.4596	1269
298.15 K, x1 = 0.5891	799.5	1.45045	1255
298.15 K, x1 = 0.6926	786	1.4403	1241
298.15 K, x1 = 0.7807	774	1.43111	1229
298.15 K, x1 = 0.8901	757.9	1.41728	1216
298.15 K, x1 = 0.9487	748.6	1.40994	1210
298.15 K, x1 = 1	740	1.40292	1204
313.15 K, x1 = 0.0414	845.1	1.48675	1271
313.15 K, x1 = 0.0948	840.2	1.48324	1263
313.15 K, x1 = 0.1986	830.2	1.47585	1248
313.15 K, x1 = 0.2985	819.9	1.46786	1232
313.15 K, x1 = 0.4078	807.7	1.45906	1216
313.15 K, x1 = 0.4703	800.3	1.45335	1206
313.15 K, x1 = 0.6043	783.5	1.4411	1186
313.15 K, x1 = 0.7006	770.4	1.4312	1171
313.15 K, x1 = 0.8048	755.4	1.42003	1155
313.15 K, x1 = 0.9074	739.7	1.40648	1140
313.15 K, x1 = 0.9595	731.4	1.40014	1134
313.15 K, x1 = 1	725	1.39456	1130

CC1CCCCC1 [methylcyclohexane] + Cc1cc(C)cc(C)c1
x1 = 1
Settings	mass density, [2] [kg/m3]	refractive index, [1]	speed of sound, [2] [m/s]
298.15 K	765.1	1.42062	1215
313.15 K	751.9	1.41274	1150

CC1CCCCC1 [methylcyclohexane] + Cc1cccc(C)c1
x1 = 1
Settings	mass density, [2] [kg/m3]	refractive index, [1]	speed of sound, [2] [m/s]
298.15 K	765	1.42062	1215
313.15 K	751.9	1.41274	1150
